Test results reported in US20250082624A1, “METHODS OF TREATING COGNITIVE IMPAIRMENT” (NeuroTherapia, Inc., priority 2023, published 2025).
Several values for one entry are separate records, joined by “and”; a condition that tells them apart may be missing. Identical values can stand only once. Entries after “also recorded” stand apart in the source; their conditions may differ.

Assay: Phase 1b MAD plasma pharmacokinetics, non-compartmental analysis
Type: in vivo, human
Excerpt: Methods: All study procedures were approved by the IRB, and informed consent was obtained. Three cohorts of volunteers 45-80 years of age with well-controlled comorbidities (NOAD) and one cohort of AD patients diagnosed with cognitive impairment consistent with prodromal AD per International Working Group criteria or mild AD per National Institute on Aging—Alzheimer's Association criteria (n=6 active, 2 placebo per cohort) were enrolled. Participants were admitted to the study site for the duration of the dosing and returned 7-12 days after the last dose for a safety visit. Participants received NTRX-07 (10, 30, or 90 mg) or a placebo in a double-blinded randomization orally once daily for seven days. Subjects were assessed for changes in vital signs, including maneuvers to induce lightheadedness, electrocardiograms, 24-hour electroencephalograms (EEG), and safety laboratory studies. The second cohort returned and received a single repeat dose after a standard high-fat meal. The AD cohort also underwent cognitive testing and had blood samples for biomarkers drawn. Subjects had PK sampling done after the first and final dose of the study drug. An independent safety review committee conducted a blinded safety review of adverse events and plasma levels between each cohort.
All subjects had PK sampling done after the first and final dose of the study drug.
Raw bioanalytical data were received from Nuvisan following analysis of plasma samples from each of four cohorts. PK parameters were calculated by noncompartmental analysis using standard equations. Specifically, area under the plasma concentration versus time curve (AUC) was calculated using the trapezoid rule. Maximal plasma concentration (Cmax) and time of maximal plasma concentration (Tmax) were taken directly from the data. Clearance divided by bioavailability (Cl/F) was calculated as the dose divided by the AUC. Apparent volume of distribution over bioavailability (Vd/F) was calculated as dose divided by Cmax.
With oral administration of the dose every 24 hours for 7 days, blood samples were taken over a 24-hour interval on Days 1 and 7 and before and after dosing on Day 3.
Raw bioanalytical data were received from Nuvisan on Oct. 27, 2022. […] Specifically, area under the plasma concentration versus time curve (AUC) was calculated using the trapezoid rule. Maximal plasma concentration (Cmax) and time of maximal plasma concentration (Tmax) were taken directly from the data. Clearance divided by bioavailability (Cl/F) was calculated as the dose divided by the AUC. Apparent volume of distribution over bioavailability (Vd/F) was calculated as dose divided by Cmax.
Raw bioanalytical data were received from Nuvisan on Nov. 24, 2022. […] Specifically, area under the plasma concentration versus time curve (AUC) was calculated using the trapezoid rule. Maximal plasma concentration (Cmax) and time of maximal plasma concentration (Tmax) were taken directly from the data. Clearance divided by bioavailability (Cl/F) was calculated as the dose divided by the AUC. Apparent volume of distribution over bioavailability (Vd/F) was calculated as dose divided by Cmax.
Raw bioanalytical data were received from Nuvisan on Dec. 19, 2022. […] Specifically, area under the plasma concentration versus time curve (AUC) was calculated using the trapezoid rule. Maximal plasma concentration (Cmax) and time of maximal plasma concentration (Tmax) were taken directly from the data. Clearance divided by bioavailability (Cl/F) was calculated as the dose divided by the AUC. Apparent volume of distribution over bioavailability (Vd/F) was calculated as dose divided by Cmax.
Raw bioanalytical data were received from Nuvisan on Jun. 30, 2023. […] Specifically, area under the plasma concentration versus time curve (AUC) was calculated using the trapezoid rule. Maximal plasma concentration (Cmax) and time of maximal plasma concentration (Tmax) were taken directly from the data. […]

[1] = Table 9: Cohort A, 10 mg QD oral, Day 1, individual subjects
[2] = Table 10: Cohort A, 10 mg QD oral, Day 7, individual subjects
[3] = Table 11: Cohort B, 30 mg QD oral, Day 1, individual subjects
[4] = Table 12: Cohort B, 30 mg QD oral, Day 7, individual subjects
[5] = Table 13: Cohort B Fed, 30 mg oral, fed state, individual subjects
[6] = Table 14: Cohort C, 90 mg QD oral, Day 1, individual subjects
[7] = Table 15: Cohort C, 90 mg QD oral, Day 7, individual subjects
[8] = Table 16: Cohort D (AD), 90 mg QD oral, Day 1, individual subjects
[9] = Table 17: Cohort D (AD), 90 mg QD oral, Day 7, individual subjects

## CC1(Cc2ccccc2)COc2cc(C(=O)N3CCCCC3)ccc21 (centres unmarked) [NTRX-07, 3-benzyl-3-methyl-2,3-dihydrobenzofuran-6-carboxylic acid-piperidine amide]
30 mg after standard high-fat meal vs fasted
  Food effect on Cmax: decreased Cmax; also recorded: muting of Cmax
90 mg dose, allometric scaling of preclinical data
  Plasma levels vs target / predicted efficacious levels: within the target ranges; also recorded: Blood levels equivalent to those that were efficacious in animal models of AD; also recorded: consistent with levels predicted to be efficacious
10-90 mg QD
  Dose linearity of PK: PK is linear across this dose range
40, 120 and 360 mg SDD QD doses
  Dose linearity of PK (interim analyses): Good dose linearity; also recorded: linear; also recorded: Dose linearity was observed
Cohort A, 40 mg SDD QD
  Accumulation over seven days of dosing: little or no accumulation
Cohort B, 120 mg SDD QD
  Accumulation over seven days of dosing: little or no accumulation
Cohort C, 360 mg SDD QD
  Accumulation over seven days of dosing: little or no accumulation
Cohort D AD patients, 90 mg QD oral, Day 1, mean ± SD
  Average of Cl/F: 62 ± 19 L/h
[1]
  AUClast: 31.6 ng·h/mL and 66.2 ng·h/mL and 131.4 ng·h/mL and 33.4 ng·h/mL and 126.9 ng·h/mL and 83.1 ng·h/mL
  Cl/F: 316.3 L/h and 151.1 L/h and 76.1 L/h and 299.0 L/h and 78.8 L/h and 120.4 L/h
  Cmax: 24.2 ng/mL and 45.0 ng/mL and 36.7 ng/mL and 18.2 ng/mL and 52.6 ng/mL and 37.0 ng/mL
  Tmax: 1.0 h
Table 9: Cohort A, 10 mg QD oral, Day 1, mean ± S.D.
  Cl/F: 174 ± 108 L/h
[2]
  AUC24 h: 47.8 ng·h/mL and 88.4 ng·h/mL and 223.8 ng·h/mL and 39.5 ng·h/mL and 80.4 ng·h/mL and 62.9 ng·h/mL
  Cl/F: 209.3 L/h and 113.2 L/h and 44.7 L/h and 253.4 L/h and 124.4 L/h and 158.9 L/h
  Cmax: 29.6 ng/mL and 39.4 ng/mL and 63.6 ng/mL and 19.6 ng/mL and 46.7 ng/mL and 27.1 ng/mL
  Tmax: 1.0 h
Table 10: Cohort A, 10 mg QD oral, Day 7, mean ± S.D.
  Cl/F: 151 ± 74 L/h
[3]
  AUClast: 141.9 ng·h/mL and 462.4 ng·h/mL and 716.1 ng·h/mL and 369.3 ng·h/mL and 222.6 ng·h/mL and 92.5 ng·h/mL and 293.8 ng·h/mL
  Cl/F: 211.4 L/h and 64.9 L/h and 41.9 L/h and 81.2 L/h and 134.7 L/h and 324.4 L/h and 102.1 L/h
  Cmax: 60.8 ng/mL and 93.9 ng/mL and 209 ng/mL and 127 ng/mL and 153 ng/mL and 47.9 ng/mL and 70.6 ng/mL
  Tmax: 1.0 h (3×) and 2.0 h
Table 11: Cohort B, 30 mg QD oral, Day 1, mean ± S.D.
  Cl/F: 137 ± 99 L/h
[4]
  AUClast: 113 ng·h/mL and 581 ng·h/mL and 286 ng·h/mL and 212 ng·h/mL and 61 ng·h/mL and 166 ng·h/mL
  Cl/F: 265.0 L/h and 51.7 L/h and 105.0 L/h and 141.2 L/h and 492.7 L/h and 181.3 L/h
  Cmax: 92.9 ng/mL and 236 ng/mL and 127 ng/mL and 186 ng/mL and 42.4 ng/mL and 37.9 ng/mL
  Tmax: 1 h
Table 12: Cohort B, 30 mg QD oral, Day 7, mean ± S.D.
  Cl/F: 206 ± 176 L/h
[5]
  AUClast: 421 ng·h/mL and 944 ng·h/mL and 471 ng·h/mL and 347 ng·h/mL and 110 ng·h/mL and 312 ng·h/mL and 124 ng·h/mL and 364 ng·h/mL
  Cl/F: 71.2 L/h and 31.8 L/h and 63.7 L/h and 86.4 L/h and 272.1 L/h and 96.3 L/h and 242.3 L/h and 82.5 L/h
  Cmax: 42 ng/mL and 95.5 ng/mL and 39.6 ng/mL and 32.3 ng/mL and 66.8 ng/mL and 20.3 ng/mL and 58.4 ng/mL
  Tmax: 1 h (2×) and 3 h (2×) and 1.5 h (3×) and 6 h
Table 13: Cohort B Fed, 30 mg oral, fed state, mean ± S.D.
  Cl/F: 123 ± 94 L/h
[6]
  AUC24 h: 1629 ng·h/mL and 857 ng·h/mL and 925 ng·h/mL and 657 ng·h/mL and 1730 ng·h/mL and 1807 ng·h/mL
  Cl/F: 55.2 L/h and 105.1 L/h and 97.3 L/h and 137.0 L/h and 52.0 L/h and 49.8 L/h
  Cmax: 449 ng/mL and 350 ng/mL and 337 ng/mL and 92.4 ng/mL and 713 ng/mL and 456 ng/mL
  Tmax: 1.5 h (3×) and 8 h and 1 h
Table 14: Cohort C, 90 mg QD oral, Day 1, mean ± S.D.
  Cl/F: 83 ± 36 L/h
[7]
  AUC24 h: 783 ng·h/mL and 604 ng·h/mL and 318 ng·h/mL and 516 ng·h/mL and 876 ng·h/mL and 1349 ng·h/mL
  Cl/F: 115.0 L/h and 149.1 L/h and 283.5 L/h and 174.4 L/h and 102.7 L/h and 66.7 L/h
  Cmax: 167 ng/mL and 230 ng/mL and 155 ng/mL and 114 ng/mL and 105 ng/mL and 361 ng/mL
  Tmax: 2 h and 1.5 h and 3 h
Table 15: Cohort C, 90 mg QD oral, Day 7, mean ± S.D.
  Cl/F: 149 ± 76 L/h
[8]
  AUClast: 1004 ng·h/mL and 1255 ng·h/mL and 2727 ng·h/mL and 1349 ng·h/mL and 1580 ng·h/mL and 1422 ng·h/mL
  Cl/F: 89.6 L/h and 71.7 L/h and 33.0 L/h and 66.7 L/h and 57.0 L/h and 63.3 L/h
  Cmax: 234 ng/mL and 491 ng/mL and 685 ng/mL and 435 ng/mL and 434 ng/mL and 587 ng/mL
  Tmax: 2 h and 1 h (2×) and 1.5 h
Table 16: Cohort D (AD), 90 mg QD oral, Day 1, mean ± S.D.
  Cl/F: 64 ± 19 L/h
[9]
  AUC24 h: 1067 ng·h/mL and 994 ng·h/mL and 856 ng·h/mL and 608 ng·h/mL and 689 ng·h/mL
  Cl/F: 144.6 L/h and 84.4 L/h and 90.5 L/h and 105.2 L/h and 148.0 L/h and 130.6 L/h
